Experimental data reported in US11746383B2, “Biomarker DLEC1 for cancer” (The Chinese University of Hong Kong, priority 2018, dated 2023).

Key:
[1] = system: ESCC, lung and NPC carcinoma cells; assay: Transwell migration and Matrigel invasion assays; format: cell-based, human; conditions: transwell assay, ectopic expression of DLEC1
Description: Transwell migration and invasion assays were performed as previously described. The numbers of migrated or invaded cells were observed and counted using a light microscope. Five fields were randomly chosen and the numbers of penetrated cells were counted.

[2] = system: NF-κB, AP-1, STATs-bs, TopFlash, SRE and PAI-1 reporters; assay: Dual-luciferase reporter assay of signaling pathways; format: cell-based, human; conditions: carcinoma cells (ESCC, lung, NPC) or immortalized normal epithelial cells (NP69)
Description: The promoter activities were determined by luciferase reporter assays. Luciferase reporters of several key signaling pathways, including NF-κB-luc, AP-1-luc, SRE-luc, STATs-bs-luc, TopFlash-luc, and PAI-luc were used to examine signaling pathway regulated by DLEC1 Cells were transiently co-transfected with DLEC1 expression vector and phRL-TK […]. […] After 48 h, cells were lysed and luciferase activities were measured using Dual-Luciferase® Reporter Assay System (Promega, Madison, Wis.). To normalize transfection efficiency, phRL-TK luciferase activities were measured as an internal control. At least three independent experiments were performed, with each repeated in triplicates.

[3] = system: multiple carcinoma cells stably-expressing DLEC1; assay: Cell proliferation (MTT) assay; format: cell-based, human
Description: (§1) Four pairs of primers (Table 6) were used to generate 4 DLEC1 fragments based on published DLEC1 sequence (GenBank accession number AB020522). Reverse transcription was carried out using normal testis RNA as template (BD Biosciences, Palo Alto, Calif.). The 4 product fragments were ligated to generate pcDNA3.1(+)-Flag-DLEC1 and pCMV-Flag-DLEC1-V5 expression plasmids. The mutation for three YXXQ motifs of DLEC1 (DLEC1-3Y, YXXQ-GGGG (“GGGG” disclosed as SEQ ID NO: 7)) was introduced by PCR into pCMV-Flag-DLEC1-V5 vector, with sequence confirmed. STAT3C expression plasmid was a gift from Prof. Honglin Chen (University of Hong Kong). Cells were transfected with lipofectamine 3000 (Invitrogen, Carlsbad, Calif.), and the cells were cultured in RPMI 1640 supplemented with 10% FBS and selected in 400 μg/mL of G418 for 20-30 days to establish some stable cell pools, with confirmed DLEC1 expression.
(§2) Colony formation assay was conducted as previously described. All experiments were performed in triplicate wells 3 times. To monitor cell proliferation, 1000 cells were plated in a 96-well plate and incubated at 37° C. in selective media for 3-(4,5-dimethylthiazolyl-2)-2,5-diphenyltetrazolium bromide (MTT) assay.

STAT3 = target: T1, STAT3 (Homo sapiens, UniProt P40763); assay: Co-immunoprecipitation with STAT3; format: binding
T1 construct: Association of endogenous DLEC1 and STAT3 proteins in HEK293T cells; endogenous in cells; host or cells: HEK293T
T1 sequence (P40763 whole entry): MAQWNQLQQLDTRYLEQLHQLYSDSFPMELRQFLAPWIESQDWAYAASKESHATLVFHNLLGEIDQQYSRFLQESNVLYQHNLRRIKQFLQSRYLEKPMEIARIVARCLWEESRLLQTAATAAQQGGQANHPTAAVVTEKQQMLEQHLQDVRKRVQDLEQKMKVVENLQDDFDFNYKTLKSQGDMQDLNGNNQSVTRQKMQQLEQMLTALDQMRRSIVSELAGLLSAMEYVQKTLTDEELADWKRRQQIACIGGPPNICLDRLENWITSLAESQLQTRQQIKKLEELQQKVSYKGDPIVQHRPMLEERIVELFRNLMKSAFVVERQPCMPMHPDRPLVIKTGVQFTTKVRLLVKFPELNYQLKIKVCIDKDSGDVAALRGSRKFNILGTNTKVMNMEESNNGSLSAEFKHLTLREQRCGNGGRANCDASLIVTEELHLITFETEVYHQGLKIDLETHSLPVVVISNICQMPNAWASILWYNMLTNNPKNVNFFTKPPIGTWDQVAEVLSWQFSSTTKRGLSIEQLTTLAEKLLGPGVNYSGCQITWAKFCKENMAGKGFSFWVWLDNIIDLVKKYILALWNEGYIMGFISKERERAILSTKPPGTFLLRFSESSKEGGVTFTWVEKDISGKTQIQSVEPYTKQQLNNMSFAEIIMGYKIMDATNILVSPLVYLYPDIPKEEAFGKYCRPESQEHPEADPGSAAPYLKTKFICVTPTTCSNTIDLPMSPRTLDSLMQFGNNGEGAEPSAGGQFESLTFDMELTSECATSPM
Description: (§3) Human IL-6 (PF01229) (Peprotech, Rocky Hill, N.J.) was used. Western blot and IP experiments were performed according to previous protocols.

[4] = system: KYSE150, H1299 and HONE1 cells; assay: Cell cycle analysis by flow cytometry (propidium iodide); format: cell-based, human; conditions: DLEC1-expressing KYSE150, H1299 and HONE1 cells
Excerpt: (§4) Flow cytometry analysis of cell cycle and apoptosis was described previously. Cells were stained with propidium iodide (PI) and Annexin V-FITC (BD Biosciences, Bedford, Mass.), and sorted by Accuri C6 (BD Biosciences, Bedford, Mass.) according to the manufacturer's protocol.

[5] = system: p-ERK, p-AKT, p-STAT3, active β-catenin; assay: Western blot of signaling protein phosphorylation; format: cell-based, human
Description: as §3

carcinoma cells [6] = assay: EMT, actin stress fiber and stemness marker analysis (immunofluorescence, Western blot, qPCR); format: cell-based, human
Description: RNA was reverse-transcribed using MuLV reverse transcriptase (GeneAmp RNA PCR kit, Applied Biosystems). RT-PCR was performed as described previously using GAPDH as a control.
Cells grown on coverslips were stained by indirect immunofluorescence as described previously. Briefly, cells were incubated with primary antibodies against DLEC1, E-cadherin, or Vimentin and then incubated with Alexa Fluor 594-conjugated secondary antibody against mouse IgG (A11062) (Invitrogen Molecular Probes, Carlsbad, Calif.), or FITC-conjugated secondary antibody against rabbit IgG (F0205) (DAKO, Denmark). To analyze the effects of DLEC1 on actin stress fiber formation, cells were serum starved for 24 h before incubation in medium-containing 5% fetal bovine serum. After 1 h, cells were fixed and stained by Rhodamine-labeled phalloidin (Invitrogen Molecular Probes). Cells were then counterstained with DAPI and imaged with an Olympus BX51 microscope (Olympus Corporation, Tokyo, Japan).

carcinoma cells [7] = assay: Cell apoptosis assay (Annexin V-FITC/PI flow cytometry, Western blot of apoptosis markers); format: cell-based, human
Description: as §4, §3

carcinoma cells [8] = assay: Scratch wound-healing assay; format: cell-based, human; conditions: confluent monolayer, versus mock cells
Description: Cell motility was assessed using a scratch wound-healing assay. Cells transient transfected with DLEC1 were cultured in 6-well plates until confluent. A single scratch was produced in the cell layer using a sterile tip. After incubation for 24 and 48 hours, cells were photographed under a phase contrast microscope. The experiments were performed in triplicates.

JAK2 = target: T2, JAK2 (Homo sapiens, UniProt O60674); assay: Co-immunoprecipitation with JAK2; format: binding
T2 construct: endogenous in cells; host or cells: HEK293T
T2 sequence (O60674 whole entry): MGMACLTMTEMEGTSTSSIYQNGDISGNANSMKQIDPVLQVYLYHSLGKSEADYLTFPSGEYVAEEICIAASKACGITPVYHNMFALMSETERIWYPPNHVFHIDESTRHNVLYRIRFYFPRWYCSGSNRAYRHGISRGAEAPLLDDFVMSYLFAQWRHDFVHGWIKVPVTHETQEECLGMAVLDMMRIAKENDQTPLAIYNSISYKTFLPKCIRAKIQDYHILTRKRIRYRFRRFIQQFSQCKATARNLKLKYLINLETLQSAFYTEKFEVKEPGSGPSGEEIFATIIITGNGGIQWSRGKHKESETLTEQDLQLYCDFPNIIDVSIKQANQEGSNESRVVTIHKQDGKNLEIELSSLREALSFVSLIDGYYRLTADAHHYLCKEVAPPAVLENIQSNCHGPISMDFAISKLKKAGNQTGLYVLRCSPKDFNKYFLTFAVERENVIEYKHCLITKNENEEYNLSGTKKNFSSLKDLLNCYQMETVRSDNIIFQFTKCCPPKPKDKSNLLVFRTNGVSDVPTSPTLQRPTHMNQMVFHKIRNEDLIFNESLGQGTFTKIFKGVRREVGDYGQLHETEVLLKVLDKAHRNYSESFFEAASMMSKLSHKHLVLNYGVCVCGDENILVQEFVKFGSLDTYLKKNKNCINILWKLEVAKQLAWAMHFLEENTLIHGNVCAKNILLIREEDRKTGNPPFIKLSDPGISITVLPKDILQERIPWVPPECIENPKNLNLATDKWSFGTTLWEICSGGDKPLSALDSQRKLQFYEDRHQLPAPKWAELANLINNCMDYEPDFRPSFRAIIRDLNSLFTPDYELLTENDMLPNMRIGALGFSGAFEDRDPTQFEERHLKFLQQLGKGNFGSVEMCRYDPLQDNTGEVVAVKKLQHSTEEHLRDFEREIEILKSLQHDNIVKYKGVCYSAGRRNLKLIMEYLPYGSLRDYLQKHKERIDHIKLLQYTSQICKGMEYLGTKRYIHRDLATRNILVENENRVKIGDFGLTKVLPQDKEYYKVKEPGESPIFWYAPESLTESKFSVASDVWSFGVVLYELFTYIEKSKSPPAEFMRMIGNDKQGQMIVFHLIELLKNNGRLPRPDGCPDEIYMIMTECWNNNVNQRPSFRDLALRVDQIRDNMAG
Description: as §3

[9] = system: ESCC, lung and NPC carcinoma cells; assay: Monolayer colony formation assay; format: cell-based, human; conditions: ectopically expressed DLEC1 in ESCC
Description: as §1, §2

[10] = system: DLEC1 expression in ESCC, lung and NPC carcinoma cell lines; assay: Demethylation treatment (Aza, TSA) and DLEC1 expression / promoter methylation analysis (RT-PCR, MSP, BGS); format: cell-based, human
Excerpt: A panel of ESCC, NPC and lung carcinoma cell lines was used. Immortalized normal esophageal epithelial (NE1, NE3, Het-1A), normal nasopharyngeal epithelial (NP69) and HEK293T cell lines were used. Cell lines were maintained in RPMI or DMEM medium (Gibco BRL, Rockville, Md.) with 10% fetal bovine serum. Human normal adult tissue RNA samples were obtained commercially (Stratagene, La Jolla, Calif., or Millipore Chemicon, Billerica, Mass.). Primary carcinoma tissues of Chinese ESCC, NPC and lung, some with matched normal samples, have been descried before. Cell lines were treated with 5 μM of 5-Aza-2′-deoxycytidine (Aza) (Sigma, St. Louis, Mo.) for 3 days, or even followed with ˜16 h additional TSA (final concentration […]) treatment as described. MSP and BGS were conducted according to previous reports. MSP was conducted for 40 cycles at the annealing temperatures of 60° C. for M and 58° C. for U. Amplified products from BGS primer set were cloned into pCR4-Topo vector (Invitrogen, Carlsbad, Calif.), with 6-8 colonies randomly chosen and sequenced. RNA was reverse-transcribed using MuLV reverse transcriptase (GeneAmp RNA PCR kit, Applied Biosystems). RT-PCR was performed as described previously using GAPDH as a control.

DLEC1 CGI = assay: ChIP assay, acetylated histone H4; format: cell-based, human; conditions: carcinoma cells following TSA treatment
Description: ChIP assay was performed as described previously. Antibody to acetylated histone H4 (Upstate Biotechnology) was used to precipitate cross-linked chromatin. ACTIN was employed as a control for normalization of each PCR product.

Which results are given for “DLEC1: 1755-amino acid human DLEC1 protein (SEQ ID NO:4), ectopically expressed from pcDNA3.1(+)-Flag-DLEC1 / pCMV-Flag-DLEC1-V5 plasmids”?
cell invasion [1]: dramatically suppressed; cell migration [1]: dramatically suppressed; reporter activities of NF-κB, AP-1, STATs-bs, TopFlash, SRE and PAI-1 elements-regulated promoters [2]: markedly repressed; growth rates [3]: slower growth rates; interaction of DLEC1 with STAT3 (STAT3; IL-6 stimulation): increased; interaction with STAT3/p-STAT3 (Tyr705) (STAT3; endogenous proteins, HEK293T cells, immunoprecipitation): strong interaction; cell cycle distribution [4]: increased G2-M phase cells and decreased S phase cells; levels of p-ERK (Thr202/Tyr204), p-AKT (Ser473), p-STAT3 (Tyr705 and Ser727) and active β-catenin ([5]; DLEC1-expressing carcinoma cells): significantly decreased; IL-6 treatment-enhanced STAT3 phosphorylation levels ([5]; IL-6 10 ng/mL for 30 min, KYSE150 and H1299 cells): suppress; p-STAT3 levels at both Tyr705 and Ser727 sites ([5]; STAT3C-transfected carcinoma cells): greatly suppressed; p-STAT3 (Tyr705) ([5]; increasing doses of DLEC1-expressing plasmids, dose-dependent): Marked decrease; stem cell markers (STAT3, CD44, ABCG2, TWIST and KLF4) (carcinoma cells [6]; ESCC and lung carcinoma cells, qPCR): downregulated; E-cadherin, vimentin and metastasis markers (MMP7, Twist) (carcinoma cells [6]; Western blot): Upregulated E-cadherin and downregulated vimentin and metastasis markers (MMP7, Twist); formation of actin stress fibers (carcinoma cells [6]; carcinoma cells): disassembled; EMT markers E-cadherin and vimentin (carcinoma cells [6]; immunofluorescence): gain of epithelial marker E-cadherin and loss of mesenchymal marker vimentin; apoptosis markers (cleaved caspase-3 and PARP) (carcinoma cells [7]; Western blot): increase; apoptotic cells (carcinoma cells [7]; after transfection with DLEC1-expression vector): significantly increased; closing of artificial wounds (carcinoma cells [8]): less proficiency in closing artificial wounds than mock cells; interaction of STAT3 with JAK2 (JAK2; IL-6 dependent manner): inhibited; interaction with JAK2 and p-STAT3 (Tyr705) (JAK2; IL-6 stimulation): decreasing; co-precipitation of JAK2 (JAK2; endogenous proteins, HEK293T cells): relatively weaker co-precipitation; colony numbers and sizes compared to controls [9]: 10-40%

What does the source list for `Nc1ncn([C@H]2C[C@H](O)[C@@H](CO)O2)c(=O)n1` [Aza, 5-aza-2′-deoxycytidine]?
Expression of DLEC1 ([10]; NPC cells): restored or increased; DLEC1 expression ([10]; cell lines of ESCC, lung and NPC with silenced DLEC1, 5 μM Aza for 3 days, or followed with ~16 h TSA): increased

Which results are given for `CC(/C=C/C(=O)NO)=C\[C@@H](C)C(=O)c1ccc(N(C)C)cc1` [TSA, Trichostatin A]?
DLEC1 expression ([10]; TSA-treated lung carcinoma cell line H1299): moderately induced; binding of acetylated histone 4 to the DLEC1 CGI (DLEC1 CGI): increased
